Experiments:
PKC (rat brain mixture) = test: PKC inhibition assay (protocol of Kikkawa, [γ-32P]ATP, histone); assay type: biochemical; settings: rat brain mixture of PKC isoforms
Description: Our initial analogs were tested for inhibition of PKC[37],[38] (rat brain mixture) due to its clinical significance and our on-going and complementary work on PKC activators.[7b],[16],[26]
Simplified analog 19 was tested in the PKC inhibition assay using the rat brain mixture of PKC isoforms. […]. Computational docking[42] of the energy-minimized conformer of 19 in the computer-simulated ATP-binding pocket of PKCα (Fig. 3) illustrates the conserved hydrogen bonds between the maleimide and hinge region residues and the shape complementarity of the ligand with the pocket.
A PKC inhibition assay was performed following the protocol developed by Kikkawa and coworkers.5 The assay can be scaled as desired. Histone solution (0.33 mg/mL in 20 mM Tris buffer) was prepared from a stock solution (33 mg/mL, stored frozen). Phosphatidylserine (PS) vesicles were prepared by the addition of PS (10 mg/mL in chloroform, 240 µL) and dioleoylglycerol (10 mg/mL in ethanol, 40 µL) to a glass vial followed by removal of the chloroform under a stream of nitrogen. To the neat PS was added chilled 20 mM Tris assay buffer (2 mL) and the resulting mixture was sonicated (Branson Sonifier 250, power = 3, 30% duty cycle) four times for 30 sec with a 30 sec interval between sonications. The resulting milky suspension was stored on ice. "Stop" solution refers to a solution of 200 mM EDTA and 200 mM ATP in 20 mM Tris buffer.
Whatman filter papers were cut in 1 x 1 inches in dimension and labeled with tube number in pencil. An "Autogo" solution was prepared by mixing 27 µL of 3.75 mM ATP (in 20 mM Tris), 100 µL of 1.0 M MgCl2, 872 µL of 20 mM Tris buffer, and 1.3 µL of [γ-32P] ATP (total volume is 1 mL). "Autogo" solution should be kept in the hot hood all the time. "Cocktail 1" was prepared by mixing 70 µL of 10 mM Ca2+, 350 µL of 20 mM Tris, and 70 µL of histone solution (0.33 mg/mL in 20mM Tris). "Cocktail 2" was prepared by mixing 310 µL of 10 mM Ca2+, 930 µL of 20 mM Tris, 310 µL of the histone solution, and 310 µL of the PS solution (added only once the assay is ready to be run).
To each eppendorf tube, 10 µL of PKC solution and10 µL of the inhibitor solution were added. After addition of the inhibitor, each tube was vortexed. For negative controls, 70 µL of cocktail 1 was added to tubes 1 and 2. To the rest of the tubes were added 60 µL of cocktail 2. All the tubes were then transferred to the hot hood, and 20 µL of "Autogo" solution was added to each tube and vortexed immediately. A start countdown of 7 min was initiated when "Autogo" was added to the first tube. Addition to all the tubes should be completed within 7 min. When the countdown is over, "Stop" solution was added to each tube and vortexed. The interval between the addition of "Autogo" and "Stop" solution should be 7 min for each tube.
Contents of each tube was transferred to the piece of pre-labeled Whatman filter paper and the paper was washed by soaking them and swirling in a beaker filled with 300 mL of tap water. Once all the filter papers are soaked in the beaker, the supernatant was carefully drained (to the hot hood drain) and the papers were rinsed by soaking them in 300 mL of fresh tap water for 2 min. The water was decanted, and the papers were rinsed by soaking them in 300 mL of ethanol for 2 min. The ethanol should be recovered to a bottle in the hot hood (not to the drain). The papers were dried in the hot hood and each paper was transferred to a scintillation vial. The radiation was measured with the scintillation counter (Beckman LS 6000SC). The data set was analyzed using a least-square data-fitting algorithm in Prism 4 (Graphpad Software Inc.) to give an IC50 value (defined as the concentration of analogue required to inhibit 50% of PKC activity).

PKCβ = settings: cited from earlier work

| SMILES | IC50 (PKC (rat brain mixture)) [nM] | selectivity for PKCβ over PKCα (PKCβ) [fold] |
| --- | --- | --- |
| CNC1CCc2c3c(c4c5cc(Cl)ccc5n(CCCN)c4c2CC1)C(=O)NC3=O (centres unmarked) [Compound 12] | 14100 | – |
| CN(C)C1CCc2c3c(c4c5cc(Cl)ccc5n(CCCN)c4c2CC1)C(=O)NC3=O (centres unmarked) [Compound 13] | 2900 | – |
| CN(C)C1CCc2c3c(c4c5ccccc5n(CCCN)c4c2CC1)C(=O)NC3=O (centres unmarked) [Compound 14] | 1600 | – |
| CN(C)C1CCc2c(CC3CCNCC3)cc3c(c2CC1)C(=O)NC3=O (centres unmarked) [Compound 19] | 13 | – |
| Cn1cc(C2=C(c3cn(C4CCN(Cc5ccccn5)CC4)c4ccccc34)C(=O)NC2=O)c2ccccc21 [enzastaurin] | – | 26 |
| CN(C)C[C@@H]1CCn2cc(c3ccccc32)C2=C(C(=O)NC2=O)c2cn(c3ccccc23)CCO1 [ruboxistaurin] | – | 60 |

More lines, main results first:

| IC50 (PKC (rat brain mixture)) [nM] | SMILES | selectivity for PKCβ over PKCα (PKCβ) [fold] |
| --- | --- | --- |
| 2600 | NCCCn1c2ccc(Cl)cc2c2c3c(c4c(c21)CCC(O)CC4)C(=O)NC3=O (centres unmarked) [Compound 10] | – |
| 12500 | NCCCn1c2ccc(Cl)cc2c2c3c(c4c(c21)CCC(N)CC4)C(=O)NC3=O (centres unmarked) [Compound 11] | – |

Reference: paper PMC4304288, “Function through bio-inspired, synthesis-informed design: step-economical syntheses of designed kinase inhibitors” (Organic Chemistry Frontiers, 2014)
